The target of the experiment is T1, Can1 (CRISPR ancillary nuclease 1; TTHB155) (Thermus thermophilus, UniProt Q53W14).
T1 construct: full length 636 aa plus C-terminal Leu-Glu; synthetic gene, E. coli C43 (DE3) (SeMet protein in B834), N-terminal His tag cut with TEV; monomer
T1 sequence (Q53W14 1-636): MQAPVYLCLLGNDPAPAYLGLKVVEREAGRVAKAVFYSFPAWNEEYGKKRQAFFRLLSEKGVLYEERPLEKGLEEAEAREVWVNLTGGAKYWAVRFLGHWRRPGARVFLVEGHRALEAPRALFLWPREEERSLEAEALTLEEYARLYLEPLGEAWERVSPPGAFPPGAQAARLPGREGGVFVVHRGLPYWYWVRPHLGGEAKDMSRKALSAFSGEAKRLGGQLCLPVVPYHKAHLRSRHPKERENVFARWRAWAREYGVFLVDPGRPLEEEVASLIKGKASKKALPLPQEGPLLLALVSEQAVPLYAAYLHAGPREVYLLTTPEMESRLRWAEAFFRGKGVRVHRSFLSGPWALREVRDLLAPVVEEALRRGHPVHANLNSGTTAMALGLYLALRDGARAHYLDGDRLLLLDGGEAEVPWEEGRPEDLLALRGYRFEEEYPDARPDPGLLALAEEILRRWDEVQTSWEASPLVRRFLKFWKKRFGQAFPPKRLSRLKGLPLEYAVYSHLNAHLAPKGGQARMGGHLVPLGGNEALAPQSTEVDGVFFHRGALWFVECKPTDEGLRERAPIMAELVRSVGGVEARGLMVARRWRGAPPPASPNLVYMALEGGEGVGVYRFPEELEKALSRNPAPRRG
The experiment in a line: X-ray crystal structure ([…] A); also EMSA with […]-labelled cA4, SAXS and nuclease activation. Format: binding. The following applies: SeMet protein, 1:2 molar ratio with cA4, pH 6.5; site between the two CARF domains; activator. In general terms: In EMSA bound probe runs differently from free probe, usually more slowly.

On to `Nc1ncnc2c1ncn2[C@@H]1O[C@@H]2COP(=O)(O)O[C@H]3[C@@H](O)[C@H](n4cnc5c(N)ncnc54)O[C@@H]3COP(=O)(O)O[C@H]3[C@@H](O)[C@H](n4cnc5c(N)ncnc54)O[C@@H]3COP(=O)(O)O[C@H]3[C@@H](O)[C@H](n4cnc5c(N)ncnc54)O[C@@H]3COP(=O)(O)O[C@H]2[C@H]1O` [cA4], for which the “X-ray crystal structure (1.83 A); also EMSA with 32P-labelled cA4, SAXS and nucl” value is “A molecule of cA4 sits at the interface”.

Source of the values: article PMC6981274, “Structure and mechanism of a Type III CRISPR defence DNA nuclease activated by cyclic oligoadenylate” (Nature Communications, 2020).
